# Laboratory results taken from patent publication US8614206B2 (Genentech, Inc., priority 2011, dated 2013).
# Read-outs that look alike come from different tables or passages of the source.
# Key:
# [1] = system: MM1.S (multiple myeloma) cells; assay: In vitro cell proliferation, MM1.S multiple myeloma cells (CellTiter-Glo, ATP); format: cell-based; conditions: Homo sapiens, MM1.S, 72 h, read-out: Prolif MM1S ATP (EC50)
# How it was run: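 BaF3 parental cells (medium with 2 ng/mL mIL-3) seeded at 2 k/well and MM1.S at 10 k/well, then exposed to test compound at 37° C, 5% CO2: BaF3 overnight, MM1.S for 72 hours. Viability read by CellTiter-Glo; IC50/EC50 values calculated.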
# BaF3 PIM1 cells = assay: cells; conditions: Mus musculus
# Method: BaF3 parental line was obtained from the DSMZ repository. BaF3 lines transfected with PIM 1 or PIM2 were generated. Mouse IL-3 was purchased from R&D Systems. G418 was purchased from Clontech. Media for BaF3 parental line contained RPMI, 10% FBS, 2 mM L-Glutamine, 2 ng/mL mIL-3. Media for BaF3 PIM1 & 2 lines contained RPMI, 10% FBS, 2 mM L-Glutamine, 250 μg/mL.
# BaF3, a murine interleukin-3 dependent pro-B cell line, parental cells, BaF3 PIM1 cells, BaF3 PIM2 cells, and MM1.S (multiple myeloma) cells were seeded at 2 k/well, 5 k/well, 5 k/well, and 10 k/well respectively, in a 384-well plate, at 45 μL/well. Test compound was added at 5 μL/well. BaF3 cells (parental and transfected) were incubated overnight, while MM1.S cells were incubated for 72 hours at 37° C., 5% CO2. CELL TITER GLO® Reagent (Promega) was added at 50 μL/well, the plates were incubated for 30 minutes, and their luminescence read on an HT Analyst. IC50/EC50 values for the test compound were calculated.
# PIM1 = PIM1 (Homo sapiens (Human), UniProt P11309); assay: Pim kinase inhibition, PIM1 LC3K (Example 901); format: biochemical
# From the text: Determination of the Pim kinase activity of a Formula I compound is possible by a number of direct and indirect detection methods.
# BaF3 parental cells = assay: In vitro cell proliferation, BaF3 parental line + IL3 (CellTiter-Glo); format: cell-based, murine; conditions: Mus musculus, BaF3, BaF3 parental cells with IL-3, incubated overnight
# [2] = BaF3, read-out: Prolif BaF3 PIM1 (IC50), BaF3 PIM1 cells, incubated overnight
# [3] = read-out: Prolif BaF3 IL3 (IC50)
# [4] = BaF3, read-out: Prolif BaF3_PIM1 (IC50), BaF3 PIM1 cells, incubated overnight
# [5] = read-out: Prolif BaF3 + IL3 (IC50)
# Chain of PIM1 (P11309 whole entry): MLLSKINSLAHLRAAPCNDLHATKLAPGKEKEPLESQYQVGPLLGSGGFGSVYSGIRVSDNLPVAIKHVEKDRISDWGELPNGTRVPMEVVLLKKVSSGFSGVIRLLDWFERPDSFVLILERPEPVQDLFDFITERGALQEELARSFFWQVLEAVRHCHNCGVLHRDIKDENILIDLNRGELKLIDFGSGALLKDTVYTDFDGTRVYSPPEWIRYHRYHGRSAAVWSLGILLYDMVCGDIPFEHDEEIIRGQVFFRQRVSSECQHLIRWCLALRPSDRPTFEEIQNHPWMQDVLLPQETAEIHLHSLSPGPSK
EC50 [1] [nM],IC50 (BaF3 PIM1 cells; [2]) [nM],Ki (PIM1) [nM],IC50 (BaF3 PIM1 cells; [4]) [nM],Structure (SMILES),IC50 (BaF3 parental cells; [3]) [nM],IC50 (BaF3 parental cells; [5]) [nM]
3900,778,0.097,–,"CN[C@@H]1CCCN(c2c(NC(=O)c3nc(-c4cc(C)ccc4F)sc3N)cnn2CC(F)F)CC1 [Example 109, (R)-5-Amino-N-(1-(2,2-difluoroethyl)-5-(4-(methylamino)azepan-1-yl)-1H-pyrazol-4-yl)-2-(2-fluoro-5-methylphenyl)thiazole-4-carboxamide]",5100,–
420,86.3,0.015,–,"Cn1ncc(NC(=O)c2nc(-c3c(F)ccc(C4CC4)c3F)sc2N)c1N1CCC[C@@H](N)CC1 [Example 115, (R)-5-amino-N-(5-(4-aminoazepan-1-yl)-1-methyl-1H-pyrazol-4-yl)-2-(3-cyclopropyl-2,6-difluorophenyl)thiazole-4-carboxamide]",5800,–
122,63.6,0.01,–,"Cc1ccc(F)c(-c2nc(C(=O)Nc3cnn(C)c3N3CCC[C@@H](N)CC3)c(N)s2)c1F [Example 116, (R)-5-amino-N-(5-(4-aminoazepan-1-yl)-1-methyl-1H-pyrazol-4-yl)-2-(2,6-difluoro-3-methylphenyl)thiazole-4-carboxamide]",8100,–
3000,212,0.044,–,"CN[C@H]1CCCN(c2c(NC(=O)c3nc(-c4cc(C)ccc4F)sc3N)cnn2CC(F)F)CC1 [Example 119, (S)-5-Amino-N-(1-(2,2-difluoroethyl)-5-(4-(methylamino)azepan-1-yl)-1H-pyrazol-4-yl)-2-(2-fluoro-5-methylphenyl)thiazole-4-carboxamide]",5600,–
160,404,0.12,–,"Nc1sc(-c2cc(F)ccc2F)nc1C(=O)Nc1cnn(CC(F)F)c1N1CCC[C@@H](N)CC1 [Example 161, (R)-5-amino-N-(5-(4-aminoazepan-1-yl)-1-(2,2-difluoroethyl)-1H-pyrazol-4-yl)-2-(2,5-difluorophenyl)thiazole-4-carboxamide]",6000,–
20200,547,0.206,–,"Cn1ncc(NC(=O)c2nc(-c3ccccn3)sc2N)c1N1CCNCC(F)(F)C1 [Example 223, 5-amino-N-(5-(6,6-difluoro-1,4-diazepan-1-yl)-1-methyl-1H-pyrazol-4-yl)-2-(pyridin-2-yl)thiazole-4-carboxamide]",12500,–
32,–,0.0694,33.6,"COC1CCN(c2c(NC(=O)c3nc(-c4ccccc4F)sc3N)cnn2C)CCC1N (stereo not drawn) [Example 324, 5-amino-N-[5-(4-amino-5-methoxy-azepan-1-yl)-1-methyl-pyrazol-4-yl]-2-(2-fluorophenyl)thiazole-4-carboxamide]",–,19600
752,–,0.153,191,"COC1CCN(c2c(NC(=O)c3nc(-c4cc(C)ccc4F)sc3N)cnn2C)CCC1N (stereo not drawn) [Example 325, 5-amino-N-[5-(4-amino-5-methoxy-azepan-1-yl)-1-methyl-pyrazol-4-yl]-2-(2-fluoro-5-methyl-phenyl)thiazole-4-carboxamide]",–,16600
185,–,0.384,73.5,"COC1CCN(c2c(NC(=O)c3nc(-c4cc(F)ccc4F)sc3N)cnn2C)CCC1N (stereo not drawn) [Example 326, 5-amino-N-[5-(4-amino-5-methoxy-azepan-1-yl)-1-methyl-pyrazol-4-yl]-2-(2,5-difluorophenyl)thiazole-4-carboxamide]",–,17400
2800,–,0.248,1300,"Cc1ccc(F)c(-c2nc(C(=O)Nc3cnn(C4CC4)c3N3CCC(N)C(F)CC3)c(N)s2)c1 (stereo not drawn) [Example 329, 5-amino-N-[5-(4-amino-5-fluoro-azepan-1-yl)-1-cyclopropyl-pyrazol-4-yl]-2-(2-fluoro-5-methyl-phenyl)thiazole-4-carboxamide]",–,4600
1200,–,0.01,83.6,"Nc1sc(-c2c(F)cccc2F)nc1C(=O)Nc1cnn(C2CC2)c1N1CC[C@H](N)CC(F)(F)C1 [Example 344, 5-amino-N-[5-[(5S)-5-amino-3,3-difluoro-azepan-1-yl]-1-cyclopropyl-pyrazol-4-yl]-2-(2,6-difluorophenyl)thiazole-4-carboxamide]",–,5200
136,–,0.007,81.3,"Nc1sc(-c2c(F)cccc2F)nc1C(=O)Nc1cnn(C2CC2)c1N1CC[C@@H](N)CC(F)(F)C1 [Example 345, 5-amino-N-[5-[(5R)-5-amino-3,3-difluoro-azepan-1-yl]-1-cyclopropyl-pyrazol-4-yl]-2-(2,6-difluorophenyl)thiazole-4-carboxamide]",–,8400
7000,–,1.08,1400,"COc1ncccc1-c1nc(C(=O)Nc2cnn(C)c2N2CCC[C@H](N)CC2)c(N)s1 [Example 418, 5-amino-N-[5-[(4S)-4-aminoazepan-1-yl]-1-methyl-pyrazol-4-yl]-2-(2-methoxy-3-pyridyl)thiazole-4-carboxamide]",–,> 25000
3800,–,0.38,340,"Cn1ncc(NC(=O)c2nc(-c3ccncc3F)sc2N)c1N1CC[C@H](N)[C@@H](F)CC1 [Example 422, 5-amino-N-(5-((4S,5S)-4-amino-5-fluoroazepan-1-yl)-1-methyl-1H-pyrazol-4-yl)-2-(3-fluoropyridin-4-yl)thiazole-4-carboxamide]",–,> 25000
571,–,0.014,6.97,"Cn1ncc(NC(=O)c2nc(-c3ccncc3F)sc2N)c1N1CC[C@@H](N)CC(F)(F)C1 [Example 447, 5-amino-N-[5-[(5R)-5-amino-3,3-difluoro-azepan-1-yl]-1-methyl-pyrazol-4-yl]-2-(3-fluoro-4-pyridyl)thiazole-4-carboxamide]",–,12900
221,–,0.009,2.57,"Cn1ncc(NC(=O)c2nc(-c3c(F)cncc3F)sc2N)c1N1CC[C@@H](N)CC(F)(F)C1 [Example 455, 5-amino-N-[5-[(5R)-5-amino-3,3-difluoro-azepan-1-yl]-1-methyl-pyrazol-4-yl]-2-(3,5-difluoro-4-pyridyl)thiazole-4-carboxamide]",–,3900
492,–,0.006,6.84,"COc1cc(F)c(-c2nc(C(=O)Nc3cnn(C)c3N3CCC(N)CC(F)(F)C3)c(N)s2)c(F)c1 (stereo not drawn) [Example 459, 5-amino-N-[5-(5-amino-3,3-difluoro-azepan-1-yl)-1-methyl-pyrazol-4-yl]-2-(2,6-difluoro-4-methoxy-phenyl)thiazole-4-carboxamide]",–,7500
215,–,0.026,36.4,"Cc1c(-c2nc(C(=O)Nc3cnn(C)c3N3CCC(N)CC(F)(F)C3)c(N)s2)cnn1C (stereo not drawn) [Example 460, 5-amino-N-[5-(5-amino-3,3-difluoro-azepan-1-yl)-1-methyl-pyrazol-4-yl]-2-(1,5-dimethylpyrazol-4-yl)thiazole-4-carboxamide]",–,> 25000
211,–,0.08,39.7,"Cn1ncc(NC(=O)c2nc(-c3cccc(C#N)n3)sc2N)c1N1CC[C@@H](N)CC(F)(F)C1 [Example 461, 5-amino-N-[5-[(5R)-5-amino-3,3-difluoro-azepan-1-yl]-1-methyl-pyrazol-4-yl]-2-(6-cyano-2-pyridyl)thiazole-4-carboxamide]",–,16600
1200,–,0.03,32.6,"Cc1nn(C)cc1-c1nc(C(=O)Nc2cnn(C)c2N2CC[C@@H](N)CC(F)(F)C2)c(N)s1 [Example 462, 5-amino-N-[5-[(5R)-5-amino-3,3-difluoro-azepan-1-yl]-1-methyl-pyrazol-4-yl]-2-(1,3-dimethylpyrazol-4-yl)thiazole-4-carboxamide]",–,8000
108,–,0.018,58.4,"Cc1c(-c2nc(C(=O)Nc3cnn(C)c3N3CC[C@@H](N)CC(F)(F)C3)c(N)s2)cnn1C [Example 463, 5-amino-N-[5-[(5R)-5-amino-3,3-difluoro-azepan-1-yl]-1-methyl-pyrazol-4-yl]-2-(1,5-dimethylpyrazol-4-yl)thiazole-4-carboxamide]",–,> 25000
467,–,0.06,11.9,"Cc1cc(-c2nc(C(=O)Nc3cnn(C)c3N3CC[C@@H](N)CC(F)(F)C3)c(N)s2)ccn1 [Example 464, 5-amino-N-[5-[(5R)-5-amino-3,3-difluoro-azepan-1-yl]-1-methyl-pyrazol-4-yl]-2-(2-methyl-4-pyridyl)thiazole-4-carboxamide]",–,15900
248,–,0.009,41.1,"COC1(C)CC(N)CCN(c2c(NC(=O)c3nc(-c4c(F)cncc4F)sc3N)cnn2C)C1 (stereo not drawn) [Example 473, 5-amino-N-[5-(5-amino-3-methoxy-3-methyl-azepan-1-yl)-1-methyl-pyrazol-4-yl]-2-(3,5-difluoro-4-pyridyl)thiazole-4-carboxamide]",–,25000
872,–,0.013,24.5,"COC1(C)CC(N)CCN(c2c(NC(=O)c3nc(-c4ccncc4F)sc3N)cnn2C)C1 (stereo not drawn) [Example 476, 5-amino-N-[5-(5-amino-3-methoxy-3-methyl-azepan-1-yl)-1-methyl-pyrazol-4-yl]-2-(3-fluoro-4-pyridyl)thiazole-4-carboxamide]",–,25000
